According to patent US20250304620A1, “ANTIMICROBIAL PEPTIDE AND APPLICATION THEREOF” (priority 2023, published 2025):
Values after ≈ are worked out from the molar mass of the structure shown. Marks after values point to notes of the source that are not given here. Non-standard residues stand in square brackets, D forms with d. Residues, ends and D or L forms follow the SMILES beside them. d2Nal = N[C@H](Cc1ccc2ccccc2c1)C(=O)O

Experiments:
[1] = test system: Staphylococcus aureus (NRS 384); assay: microbe, parasite or virus in culture; format: cell-based; conditions: NRS 384
Summary of the method: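 CLSI broth microdilution with serial twofold dilutions gave MICs against S. aureus NRS 384, with 5 parallel replicates. Levofloxacin and the AMP Cbf-K16 served as positive controls.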

[2] = test system: Staphylococcus aureus (NRS 384); conditions: NRS 384, 3 h
Procedure: Trypsin (250 U/mg, pH=8.0) and AMPs (LV-1 to LV-30) were mixed in a ratio of 1:10 (w/w) and added to a reaction buffer (0.2 M sodium phosphate, 1 mM CaCl2), pH 7.5), and then incubated at 37° C. for 3 h.

[3] = test system: Candida albicans ATCC MYA-2876; format: cell-based
Summary of the method: (§1)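 MICs were determined by serial twofold dilution in microdilution format, following CLSI antimicrobial susceptibility testing standards. Each determination was repeated 5 times in parallel.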

[4] = test system: Salmonella typhimurium ATCC 14028; format: cell-based
Summary of the method: as §1

[5] = test system: Candida tropicalis ATCC 750; format: cell-based
Summary of the method: as §1

[6] = test system: Candida krusei ATCC 6258; format: cell-based
Summary of the method: as §1

[7] = test system: Corynebacterium ATCC 7715; format: cell-based
Summary of the method: as §1

[8] = test system: Pseudomonas aeruginosa ATCC 27853; format: cell-based
Summary of the method: as §1

[9] = test system: Escherichia coli ATCC 25922; format: cell-based
Summary of the method: as §1

[10] = test system: Staphylococcus aureus ATCC 25923; format: cell-based
Summary of the method: as §1

[11] = test system: Bacillus subtilis ATCC 6633; format: cell-based
Summary of the method: as §1

[12] = test system: Candida glabrata ATCC 15126; format: cell-based
Summary of the method: as §1

[13] = test system: Serratia marcescens ATCC 29021; format: cell-based
Summary of the method: as §1

[14] = test system: Trichophyton ATCC MYA-4438; format: cell-based
Summary of the method: as §1

[15] = test system: Enterococcus ATCC 29212; format: cell-based
Summary of the method: as §1

[16] = test system: Candida utilis ATCC 9950; format: cell-based
Summary of the method: as §1

[17] = test system: Klebsiella pneumoniae ATCC 700603; format: cell-based
Summary of the method: as §1

[18] = test system: Pseudomonas aeruginosa ATCC 27853; assay: Injectable formulations on mice infected with peritonitis; format: in vivo, ICR mice; conditions: twice a day for 3 days; for Number of mice that died on each day after infection: day 1 / Number of mice that died on each day after infection: day 2 / Number of mice that died on each day after infection: day 3 / Number of mice that died on each day after infection: day 4 / Number of mice that died on each day after infection: day 5 / Average survival times (Days): n = 10; for Average survival times (Days): observed for 14 d
Summary of the method: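 ICR mice of both sexes (10 per group) infected intraperitoneally with 0.2 mL P. aeruginosa ATCC 27853 at 1×10^9 CFU/mL. Injectable formulations dosed by body weight via tail vein twice daily for 3 days; deaths and survival time recorded over 14 d.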

[19] = test system: Escherichia coli ATCC 25922; assay: Oral formulations on mice with systemic bacterial infection; format: in vivo, ICR mice; conditions: three times a day for 7 days; for Number of mice that died on each day after infection: day 4 / Number of mice that died on each day after infection: day 5 / Number of mice that died on each day after infection: day 6 / Number of mice that died on each day after infection: day 7 / Number of mice that died on each day after infection: day 8 / Average survival times (Days): n = 10; for Average survival times (Days): observed for 14 d
Summary of the method: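 ICR mice of both sexes, 10 per group, infected i.p. with 0.2 mL E. coli ATCC 25922 at 1×10^7 CFU/mL. Compounds gavaged by body weight immediately after infection, three times daily for 7 days; deaths and survival time recorded over 14 d observation.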

**Q.** Which “MIC against Staphylococcus aureus (NRS 384)” value [1] does the source give for CC(=O)N[C@H](CCCNC(=N)N)C(=O)N[C@H](CCCNC(=N)N)C(=O)N[C@H](CC(C)C)C(=O)N[C@H](CC(C)C)C(=O)N[C@H](Cc1ccc2ccccc2c1)C(=O)N[C@H](CCCNC(=N)N)C(=O)N[C@H](CC(C)C)C(=O)N[C@H](CCCNC(=N)N)C(=O)N[C@H](Cc1ccc2ccccc2c1)C(=O)N[C@H](CCCNC(=N)N)C(=O)N[C@H](CCCNC(=N)N)C(N)=O [LV-1] (Ac-[dR][dR][dL][dL][d2Nal][dR][dL][dR][d2Nal][dR][dR]-NH2) here?
**A.** 1 µg/mL (≈ 0.578 µM)

**Q.** And the “Trypsin MIC” value [2]?
**A.** 1 µg/mL

**Q.** What about the “MIC Candida albicans ATCC MYA-2876” value [3] of the same compound?
**A.** 8 µg/mL (≈ 4.62 µM)

**Q.** What about the “MIC Salmonella typhimurium ATCC 14028” value [4] of the same compound?
**A.** 2 µg/mL (≈ 1.16 µM)

**Q.** What about the “MIC Candida tropicalis ATCC 750” value [5] of the same compound?
**A.** 4 µg/mL (≈ 2.31 µM)

**Q.** And the “MIC Candida krusei ATCC 6258” value [6]?
**A.** 4 µg/mL (≈ 2.31 µM)

**Q.** And the “MIC Corynebacterium ATCC 7715” value [7]?
**A.** 2 µg/mL (≈ 1.16 µM)

**Q.** And the “MIC Pseudomonas aeruginosa ATCC 27853” value [8]?
**A.** 1 µg/mL (≈ 0.578 µM)

**Q.** And the “MIC Escherichia coli ATCC 25922” value [9]?
**A.** 1 µg/mL (≈ 0.578 µM)

**Q.** What about the “MIC Staphylococcus aureus ATCC 25923” value [10] of the same compound?
**A.** 1 µg/mL (≈ 0.578 µM)

**Q.** What about the “MIC Bacillus subtilis ATCC 6633” value [11] of the same compound?
**A.** 4 µg/mL (≈ 2.31 µM)

**Q.** And the “MIC Candida glabrata ATCC 15126” value [12]?
**A.** 8 µg/mL (≈ 4.62 µM)

**Q.** And the “MIC Serratia marcescens ATCC 29021” value [13]?
**A.** 2 µg/mL (≈ 1.16 µM)

**Q.** What about the “MIC Trichophyton ATCC MYA-4438” value [14] of the same compound?
**A.** 8 µg/mL (≈ 4.62 µM)

**Q.** And the “MIC Enterococcus ATCC 29212” value [15]?
**A.** 2 µg/mL (≈ 1.16 µM)

**Q.** And the “MIC Candida utilis ATCC 9950” value [16]?
**A.** 8 µg/mL (≈ 4.62 µM)

**Q.** And the “MIC Klebsiella pneumoniae ATCC 700603” value [17]?
**A.** 4 µg/mL (≈ 2.31 µM)

**Q.** And the “Number of mice that died on each day after infection: day 1” value (from here on “Number of mice that died … day 1”) ([18]; 0.2 mg/kg via tail vein)?
**A.** 1 Mouse

**Q.** What about the “Number of mice that died on each day after infection: day 2” value (shortened to “Number of mice that died … day 2”) ([18]; 0.2 mg/kg via tail vein) of the same compound?
**A.** 2 Mouse

**Q.** What about the “Number of mice that died on each day after infection: day 3” value (“Number of mice that died … day 3” below) ([18]; 0.2 mg/kg via tail vein) of the same compound?
**A.** 1 Mouse

**Q.** What about the “Number of mice that died on each day after infection: day 4” value (from here on “Number of mice that died … day 4”) ([18]; 0.2 mg/kg via tail vein) of the same compound?
**A.** 1 Mouse

**Q.** And the “Number of mice that died on each day after infection: day 5” value (shortened to “Number of mice that died … day 5”) ([18]; 0.2 mg/kg via tail vein)?
**A.** 1 Mouse

**Q.** What about the “Average survival times (Days)” value ([18]; 0.2 mg/kg via tail vein) of the same compound?
**A.** 7.3** Days

**Q.** And the “Number of mice that died … day 1” value ([18]; 1 mg/kg via tail vein)?
**A.** 0 Mouse

**Q.** What about the “Number of mice that died … day 2” value ([18]; 1 mg/kg via tail vein) of the same compound?
**A.** 1 Mouse

**Q.** What about the “Number of mice that died … day 3” value ([18]; 1 mg/kg via tail vein) of the same compound?
**A.** 1 Mouse

**Q.** What about the “Number of mice that died … day 4” value ([18]; 1 mg/kg via tail vein) of the same compound?
**A.** 1 Mouse

**Q.** And the “Number of mice that died … day 5” value ([18]; 1 mg/kg via tail vein)?
**A.** 0 Mouse

**Q.** And the “Average survival times (Days)” value ([18]; 1 mg/kg via tail vein)?
**A.** 10.7**** Days

**Q.** What about the “Number of mice that died … day 1” value ([18]; 5 mg/kg via tail vein) of the same compound?
**A.** 2 Mouse

**Q.** And the “Number of mice that died … day 2” value ([18]; 5 mg/kg via tail vein)?
**A.** 1 Mouse

**Q.** And the “Number of mice that died … day 3” value ([18]; 5 mg/kg via tail vein)?
**A.** 1 Mouse

**Q.** And the “Number of mice that died … day 4” value ([18]; 5 mg/kg via tail vein)?
**A.** 0 Mouse

**Q.** What about the “Number of mice that died … day 5” value ([18]; 5 mg/kg via tail vein) of the same compound?
**A.** 0 Mouse

**Q.** And the “Average survival times (Days)” value ([18]; 5 mg/kg via tail vein)?
**A.** 9.1** Days

**Q.** And the “survival time of mice infected with Pseudomonas aeruginosa” value ([18]; tail vein, observed 14 d)?
**A.** superior to those of the Levofloxacin group

**Q.** And the “Number of mice that died … day 4” value ([19]; 0.2 mg/kg gavage)?
**A.** 0 Mouse

**Q.** And the “Number of mice that died … day 5” value ([19]; 0.2 mg/kg gavage)?
**A.** 3 Mouse

**Q.** What about the “Number of mice that died on each day after infection: day 6” value (“Number of mice that died … day 6” below) ([19]; 0.2 mg/kg gavage) of the same compound?
**A.** 1 Mouse

**Q.** And the “Number of mice that died on each day after infection: day 7” value (from here on “Number of mice that died … day 7”) ([19]; 0.2 mg/kg gavage)?
**A.** 0 Mouse

**Q.** And the “Number of mice that died on each day after infection: day 8” value (shortened to “Number of mice that died … day 8”) ([19]; 0.2 mg/kg gavage)?
**A.** 1 Mouse

**Q.** What about the “Average survival times (Days)” value ([19]; 0.2 mg/kg gavage) of the same compound?
**A.** 9.9** Days

**Q.** And the “Number of mice that died … day 4” value ([19]; 1 mg/kg gavage)?
**A.** 0 Mouse

**Q.** What about the “Number of mice that died … day 5” value ([19]; 1 mg/kg gavage) of the same compound?
**A.** 0 Mouse

**Q.** And the “Number of mice that died … day 6” value ([19]; 1 mg/kg gavage)?
**A.** 1 Mouse

**Q.** What about the “Number of mice that died … day 7” value ([19]; 1 mg/kg gavage) of the same compound?
**A.** 1 Mouse

**Q.** What about the “Number of mice that died … day 8” value ([19]; 1 mg/kg gavage) of the same compound?
**A.** 1 Mouse

**Q.** What about the “Average survival times (Days)” value ([19]; 1 mg/kg gavage) of the same compound?
**A.** 11.9**** Days

**Q.** What about the “Number of mice that died … day 4” value ([19]; 5 mg/kg gavage) of the same compound?
**A.** 0 Mouse

**Q.** What about the “Number of mice that died … day 5” value ([19]; 5 mg/kg gavage) of the same compound?
**A.** 0 Mouse

**Q.** And the “Number of mice that died … day 6” value ([19]; 5 mg/kg gavage)?
**A.** 2 Mouse

**Q.** What about the “Number of mice that died … day 7” value ([19]; 5 mg/kg gavage) of the same compound?
**A.** 1 Mouse

**Q.** And the “Number of mice that died … day 8” value ([19]; 5 mg/kg gavage)?
**A.** 0 Mouse

**Q.** And the “Average survival times (Days)” value ([19]; 5 mg/kg gavage)?
**A.** 11.7**** Days

**Q.** What about the “survival time of mice infected with Escherichia coli” value ([19]; gavage, observed 14 d) of the same compound?
**A.** superior to those of the Levofloxacin group
